Six molecules from patent publication US11439658B2, “Compositions and methods for suppressing MSUT2” (United States Government As Represented By The Department …, priority 2018, dated 2022) can be followed below.

One may read the IC50 as the concentration that inhibits the measured activity by half. Broadly, the Kd is the concentration at which binding is half-saturated. High values mean a looser complex, low ones a tighter complex.

In data set [1] the target is T1, recombinant GST-MSUT2 binding to synthetic poly(A) RNA (Homo sapiens, UniProt Q6PJT7).
T1 construct: fused on or other part: GST at the N-terminus (pGEX6P-1 vector)
T1 sequence (Q6PJT7 595-719 limits assumed): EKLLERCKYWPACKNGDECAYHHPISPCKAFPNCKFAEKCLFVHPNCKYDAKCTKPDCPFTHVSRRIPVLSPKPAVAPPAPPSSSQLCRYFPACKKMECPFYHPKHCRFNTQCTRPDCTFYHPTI
Put plainly: MSUT2/poly(A) RNA AlphaScreen assay. The following applies: dose validated hits of pilot AlphaScreen. As for the experimental part: To identify small-molecule inhibitors of the MSUT2 protein/poly(A) RNA interaction, a high-throughput AlphaScreen assay optimized for detecting recombinant GST-MSUT2 binding to synthetic poly(A) RNA. The MSUT2 AlphaScreen assay has been well optimized during its development for 384-well screening (z-score=0.96). Two high throughput AlphaScreens of 53,400 distinct small molecules have been completed. A multi-point dose analysis pilot screen of the Spectrum Collection was performed. […] Both the pilot screen and the screening approaches disclosed herein use the Quellos High-Throughput Screening Core at the University of Washington (UW).
Assay of inhibitor dose dependence. Hits identified in the pilot screen were validated by retesting resynthesized compounds over a wide concentration range. […] These hits will be validated by conducting a 14-point dose-response analysis with a drug concentration range from 100 μM down to 1.4 nM; the MSUT2/poly(A) RNA AlphaScreen Assay will be used to produce a readout. From this dose-response analysis, IC50 values will be calculated for dose-responsive hits. For the full scale screen 64 primary hits were identified and will be subject to dose validation as described for pilot screen compounds (and Ebselen, shown in FIG. 20).
The steps and set up for performing the ALPHA assay for MSUT2 binding to polyA are as follows: • 1. Dilutions are in assay buffer (1×PAMA final concentration). • 2. Scale is for 96 well assay in PE […] ½ area plate (total volume/well is 50 μL). • 3. Assays set up in low light conditions • 4. Add 20 μL of diluted donor bead (10 ug/mL) to well bringing well volume to 20 μL • 5. Add 10 μL diluted biotin RNA (15 nM)) bringing well volume to 30 μL • 6. Add 10 μL diluted GST-MSUT2 Protein (125 nM)) bringing well volume to 40 μL • 7. Incubate at room temp for 30 minutes in the dark • 8. Add 10 μl of diluted Acceptor bead (2.5 μg/mL) to well bringing well volume to 50 • 9. Incubate at room temp for 60 minutes in the dark • 10. Read Plate using standard AlphaAssay settings on Perkin Elmer EnSpire® Alpha microplate reader
(Bead proximity is the source of the signal in Alpha formats.)

Data set [2] relates to wild type or MSUT2 KO mice. As to the kind of experiment: Kainic acid induced gliosis in mice. It is filed as in vivo, mouse. The following applies: hippocampi 3 days after single 25 mg/kg i.p. As for the experimental part:
Shown are the hippocampi of wild type or MSUT2 KO mice 3 days after KA treatment (a single dose of 25 mg/kg KA administered i.p.). […] Scale bar=500 μm.

In data set [3] the target is biotinylated poly(A)15 RNA. As to the kind of experiment: Surface plasmon resonance (Biacore) binding to poly(A) RNA. The following applies: poly(A)15, five protein concentrations 1-0.6 μM. As for the experimental part:
Surface plasmon pesonance. SPR experiments were conducted on a Biacore T200 using the Biotin Capture Kit Series S following the manufacturer's instructions (GE). Biotin capture reagent was applied to the sensor chip at a flow rate of 2 μl/minute for 300 seconds. 1 nM biotinylated RNA (BiotinTEG-AAAAAAAAAAAAAAA; SEQ ID NO: 25) was captured at a flow rate of 10 μl/minute for 180 seconds. Samples were flowed across the sensor chip at 50 μl/minute for 120 seconds and the chip was regenerated for 120 seconds at a flow rate of 10 μl/minute. KD values for binding and disassociation were calculated from the binding kinetics of each protein at five concentrations using the Biacore T200 Software v3.1 application package (GE; 1, 0.9, 0.8, 0.7, 0.6 μM).
For orientation: SPR reads the build-up and loss of mass on a sensor chip optically.

`COc1cc2c(cc1OC)-c1cc3ccc(OC)c(OC)c3c[n+]1CC2` [Palmatine]: in data set [1], the IC50 came to 1700 nM.

With `C=C(C)[C@H]1CN[C@H](C(=O)O)[C@H]1CC(=O)O` [Kainic Acid], in data set [2], the “gliotic response (astrocytosis, IHC for GFAP)” value is “obvious and strong gliotic response”. As for `O=c1c2ccccc2[se]n1-c1ccccc1` [Ebselen], the 50% inhibitory concentration (IC50) in data set [1] turned out to be 1600 nM.

In the case of `O=S(=O)(O)c1cc(N=C=S)ccc1C=Cc1ccc(N=C=S)cc1S(=O)(=O)O` [4,4′-Diisothiocyano-stilbene-2,2′ sulfonic acid], the half-inhibitory concentration (IC50) in data set [1] turned out to be 6800 nM.

B1: PABPN1: recombinant polyadenylate-binding nuclear protein 1 (protein, UniProt Q86U42 2-306, looked up)
Polyadenylate-binding protein …: AAAAAAAAAAGAAGGRGSGPGRRRHLVPGAGGEAGEGAPGGAGDYGNGLESEELEPEELLLEPEPEPEPEEEPPRPRAPPGAPGPGPGSGAPGSQEEEEEPGLVEGDPGDGAIEDPELEAIKARVREMEEEAEKLKELQNEVEKQMNMSPPPGNAGPVIMSIEEKMEADARSIYVGNVDYGATAEELEAHFHGCGSVNRVTILCDKFSGHPKGFAYIEFSDKESVRTSLALDESLFRGRQIKVIPKRTNRPGISTTDRGFPRARYRARTTNYNSSRSRFYSGFNSRPRGRVYRGRARATSWYSPY
In turn, B1 displayed a Kd in data set [3] of 237 ± 21 nM.

B2: MSUT2: recombinant mammalian suppressor of tauopathy 2, poly(A) RNA binding protein (protein)
chain: MEIGTEISRKIRSAIKGKLQELGAYVDEELPDYIMVMVANKKSQDQMTEDLSLFLGNNTIRFTVWLHGVLDKLRSVTTEPSSLKSSDTNIFDSNVPSNKSNFSRGDERRHEAAVPPLAIPSARPEKRDSRVSTSSQESKTTNVRQTYDDGAATRLMSTVKPLREPAPSEDVIDIKPEPDDLIDEDLNFVQENPLSQKKPTVTLTYGSSRPSIEIYRPPASRNADSGVHLNRLQFQQQQNSIHAAKQLDMQSSWVYETGRLCEPEVLNSLEETYSPFFRNNSEKMSMEDENFRKRKLPVVSSVVKVKKFNHDGEEEEEDDDYGSRTGSISSSVSVPAKPERRPSLPPSKQANKNLILKAISEAQESVTKTTNYSTVPQKQTLPVAPRTRTSQEELLAEVVQGQSRTPRISPPIKEEETKGDSVEKNQGTQQRQLLSRLQIDPVMAETLQMSQDYYDMESMVHADTRSFILKKPKLSEEVVVAPNQESGMKTADSLRVLSGHLMQTRDLVQPDKPASPKFIVTLDGVPSPPGYMSDQEEDMCFEGMKPVNQTAASNKGLRGLLHPQQLHLLSRQLEDPNGSFSNAEMSELSVAQKPEKLLERCKYWPACKNGDECAYHHPISPCKAFPNCKFAEKCLFVHPNCKYDAKCTKPDCPFTHVSRRIPVLSPKPAVAPPAPPSSSQLCRYFPACKKMECPFYHPKHCRFNTQCTRPDCTFYHPTINVPPRHALKWIRPQTSE
For the molecule B2, in data set [3], the Kd was found to be 60 ± 15 nM.
